# Reference: patent US12263177B2, “Biologically active ganoderma lucidum compounds and synthesis of anticancer derivatives; ergosterol peroxide probes for cellular localization” (priority 2019, dated 2025)
# Columns and labels:
# SUM-149 cells [1] = assay: Annexin V apoptosis detection; type: cell-based, human; details: 20 μM, 48 h
# Method: (§1) Cells commonly fail to bypass the G1 phase of the cycle due to mutations or DNA damage, which can result in apoptosis. […] In addition, caspase 3/7 activity assays were performed as an alternate method of apoptosis detection.
# SUM-149 cells (5×10^5) were seeded and treated either with vehicle (0.1% DMSO) or with 20 μM of EP or with puromycin (200 ng/mL) as positive control for 48 h. After treatment floating cells were collected, and all cells were harvested and counted. Treated cells were analyzed for cell death by using the FITC Annexin-V/7AAD Apoptosis detection kit (product #640922, Biolegend, San Diego, CA) according to the manufacturer's instructions. Briefly, cells were resuspended in Annexin Binding Buffer, stained with Annexin V-FITC and/or 7-AAD, and incubated for 30 min at 4° C. Data were acquired on a BD FACS Canto II cytometer (BD Biosciences, San José, Calif.) and analyzed by using FlowJo software (V10, FlowJo LLC, Ashland, OR).
# SUM-149 cells [2] = assay: Colony formation assay; type: cell-based, human; details: 72 h treatment, 10 d culture
# Method: as §1
# SUM-149 cells (1.5×10^6 cells/well) were plated on a 6-well plate. Two days later, cell media was changed to 5% FBS, and cells were incubated at 37° C. in a 5% CO2 atmosphere for 1 h before vehicle (0.1% DMSO) or EP (5-40 μM) was added. After 72 h of treatment, cells were trypsinized and reseeded at 200 cells/mL per well in 24-well plates. After 10 d of culture, colonies were visualized by crystal violet staining, and the colony numbers were counted under a microscope.
# MCF10A = type: cell-based
# Method: As a control, normal human skin fibroblasts (BJ) cells and non-cancerous mammary epithelial cells (MCF10A) were used.
# Cell viability assays (MTT or PI staining assays) in SUM-149, SUM-190, MDA-MB-231, and MCF10A cells were performed as we previously described [14].
# MDA-MB-231 cells = assay: ApoTox-Glo Triplex assay (caspase 3/7); type: cell-based, human; details: MDA-MB-231, 24 h
# Method: as §1
# (§2) Cells (9.5×10^4/well in 75 μL of fresh medium) were dispensed in 96-well black flat bottom (8807BC, Corning) plates. The cells were incubated for 12 h at 37° C. and then treated with compounds (25 μL) for 24 h. DMSO was used as a negative control, and staurosporine was used as the positive control. The experiment was stopped by adding the Viability/Cytotoxicity Reagent and briefly mixed by orbital shaking (300-500 rpm for ˜30 sec). Plates were incubated for 30 min at 37° C., and fluorescence was measured in an Envision plate reader at the following two wavelength sets: 400Ex/505Em (Viability) 485Ex/520Em (Cytotoxicity). Then, the Caspase-Glo® 3/7 Reagent was added; plates were mixed briefly by orbital shaking (300-500 rpm for ˜30 sec), followed by an additional 30 min incubation at RT. Then luminescence, which correlates with caspase 3/7 activation, was recorded with a plate reader to determine apoptosis induction.
# SUM-149 cells [3] = assay: ApoTox-Glo Triplex assay (caspase 3/7); type: cell-based, human; details: SUM-149, 24 h
# Method: as §1, §2
# SUM-149 cells [4] = assay: Migration assay (Boyden chamber); type: cell-based, human; details: 10 μM, 72 h
# Method: Previously, the anti-migratory activities of whole mushroom GLE in SUM-149 cells was reported. To investigate EP's effects on cell migration, Boyden chamber assays; while to investigate invasion, Transwell chambers were used. […] Furthermore, an additional decrease (43%) was seen when cells were treated with a non-lethal dose of 15 μM of EP (P<0.01) (FIG. 8B).
# Cell migration and invasion were measured by using Corning® FluoroBlok™ Cell Culture Inserts and performing BD BioCoat Matrigel invasion assays (BD Biosciences, San José, Calif.) as described in [12, 14].
# [5] = test system: MDA-MB-231 breast cancer cells; assay: De novo in-cell protein synthesis (click assay); type: cell-based, human; details: 2 h treatment; EP 20 μM
# Method: First, 2.5×10^4 cells/well were seeded in 8-well μ-slides (Ibidi®, #80826) and incubated at 37° C. for 12 h. The cells were treated with vehicle, compounds Ganoderic acid A or EP, or cycloheximide (positive control) for 2 h to determine protein synthesis as nascent proteins generated using Biovision's EZClick™ Global Protein Synthesis Assay Kit, (#K715-100, Milpitas, CA). The assay includes a robust chemical method based on an alkyne containing o-propargyl-puromycin (OP-puro) probe, which stops translation by forming covalent conjugates with nascent polypeptide chains. Truncated polypeptides are rapidly turned over by the proteasome and can be detected based on the subsequent click reaction with a fluorescent azide. The reaction was conducted according to the manufacturer's protocol. Cells were imaged at 20× with a Nikon C2 scanning confocal microscope, and the whole image montage was quantified by using Gen5 Software and Lionheart™ FX Automated Microscope (BioTek, Winooski, VT).
# MDA-MB-231 GFP tumors = assay: In vivo tumor progression, MDA-MB-231-GFP mammary fat pad xenograft; details: 100 mg/kg BW i.p. three times per week, female SCID mice
# Method: Female severe combined immunodeficient (SCID) mice (21 d of age) were purchased from Charles River Laboratories International Inc. (Wilmington, MA) and housed under specific pathogen free conditions. The mice received autoclaved AIN 76-A phytoestrogen-free diet (Tek Global, Harlan Teklad, Madison, WI) and water ad libitum. This protocol was approved by the Universidad Central del Caribe IACUC. Cell inoculations were performed as previously described by the inventors (PMID: 20517637, PMID: 23468988, PMID: 26958085, PMID: 30542507, PMID: 31658643). […] After tumor establishment the animals were randomly divided into control and experimental groups. Treatment started on week 5 post-inoculations when tumors were ˜100 mm^3. […]
# The mice were imaged following tumor establishment, and once per week thereafter. Tumor progression was monitored by fluorescence image analysis taken on an UVP iBox Explorer (Analytik Jena, Upland, CA) and quantified as in PMID: 20517637. Relative tumor growth was calculated as the fluorescence intensity of each tumor on day of imaging. Quantification for tumor progression was calculated using the fluorescence intensity of each treated tumor relative to the fluorescence intensity of the same tumor on d 01 of treatment administration (week 5) using ImageJ software (National Institutes of Health, Bethesda, MD). […]
# MDA-MB-231 TNBC cells = assay: Cell viability assay (CellTiter-Glo or PI staining); type: cell-based; details: Homo sapiens, MDA-MB-231, read-out: EC50, MDA-MB-231 cell viability; FIG. 4E
# Method: Different concentrations of GLE-extracted bioactive chemical components were tested for 72-h treatment periods.
# Either 1×10^3-4.8×10^3 or 4×10^2-1.2×10^3 cells were seeded to each well of 96- or 384-well white polystyrene flat-bottomed plates (3610 or 8804BC, Corning) in 100 μL or 30 μL media per well, respectively. The concentrations used were experimentally determined to ensure logarithmic growth during the duration of the experiment and prevent adverse effects on cell growth by DMSO exposure. The plates were incubated at 37° C. in 5% CO2 for 24 h before treatment. Stock solutions of test compounds (10 mM in DMSO) in nine 3-fold serial dilutions were dispensed via pintool (Biomek). The final concentration of DMSO was 0.3% (v/v) in each well. […] Luminescence was recorded in an Envision plate reader (Perkin Elmer).
# For the CTG assay, 3 or 4 replicate assays were conducted for each experimental condition, and a minimum of 3 independent experiments were conducted for cellular assays. The mean luminescence of each experimental treatment group was normalized as a percentage of the mean intensity of untreated controls. EC50 values (μM) were calculated by Pipeline Pilot Software (Accelrys, Enterprise Platform, CA, USA). EC50 values (μM) from the viability assay were calculated from dose response curve-fitting via non-linear regression by using GraphPad Prism (Version 7.0 San Diego, CA).
structure (smiles),measurement,setting,value
"CC(C)[C@@H](C)/C=C/[C@@H](C)[C@H]1CC[C@@H]2[C@]1(C)CC[C@H]1[C@]23C=C[C@]2(C[C@@H](O)CC[C@]12C)OO3 [EP, ergosterol peroxide]","decrease of live cells (Annexin−, 7AAD−)",SUM-149 cells [1],~15%
same,"percentage of cells in early apoptosis (Annexin+, 7AAD−)",SUM-149 cells [1],significantly increased
same,number and size of colonies formed,SUM-149 cells [2],concentration-dependent decrease
same,cytotoxicity in MCF10A non-cancerous mammary epithelial cells,MCF10A,did not induce cytotoxicity
same,caspase 3/7 activity,MDA-MB-231 cells,increase caspase 3/7 activity
same,caspase 3/7 activity,SUM-149 cells [3],increase caspase 3/7 activity
same,cancer cell migration,SUM-149 cells [4],decreases cancer cell migration
same,de novo protein synthesis inhibition,[5],do not inhibit de novo protein synthesis
same,tumor growth rate (GFP fluorescence integrated density relative to week 5),MDA-MB-231 GFP tumors,significantly decreases
same,EC50,MDA-MB-231 TNBC cells,19 µM
